Measured values taken from US11021468B2, “TGF-ß inhibitors” (Rigel Pharmaceuticals, Inc., priority 2015, dated 2021).

What was measured:
GDF8 = experiment: AlphaScreen SureFire SMAD3 (p-Ser423/425) assay, GDF8-stimulated (GDF pSMAD (MPC11)); assay type: cell-based; conditions: p-SMAD-3 (Ser423/425)
Excerpt: (§1) Example 2: AlphaScreen® SureFire® SMAD3 (p-Ser423/425) Assay
(§2) The p-SMAD-3 (Ser423/425) SureFire® assay has been designed to measure the phosphorylation of endogenous cellular p-SMAD-3 (Ser423/425) in cell lysates and is a system for the screening of both modulators of receptor activation (e.g. agonists and antagonists) as well as agents acting intracellularly, such as small molecule inhibitors of upstream events. The assay will measure p-SMAD-3 (Ser423/425) activation by either cloned or endogenous receptors, and can be applied to primary cells.
(§3) P-SMAD-3 (Ser423/425) SureFire® Assay Protocols
(§4) 96-well Assay Protocol for 293FT and RMS13 adherent cells can be carried out manually or in high throughput with liquid handling robots.
(§5) The cells (80 μL of cells for 96 well plates) were plated in collagen coated tissue culture plates in RPMI or FreeStyle medium (Invitrogen) and incubated overnight. For manual analysis, 6 plates for GDF8, 6 plates for TGFβ, and optionally 6 plates for Alk5ca(ALK5 constitutively active) were used.
(§6) The compound dilution plates were prepared as follows: 12 μL of DMSO was transferred into first column of 96-well plate, and 16 μL of DMSO was transferred into columns 2-12 of the 96-well plate. 12 μL of compound solution was transferred into first column of the DMSO-containing 96-well plate. Three-fold dilution was performed up to column 10 of the DMSO-containing 96-well plate.
(§7) The plate containing cells were treated with compounds for about 10 minutes, and then ligand was added. GDF8 or TGFb was added to plates to stimulate. 293FL cells were stimulated for 90 minutes at 37° C.; and RMS13 cells were stimulated for 60 minutes at 37° C. The medium was then removed from the cells, and 1× Lysis Buffer (about 25 μL) was added and the plate was gently agitated on plate shaker for 5-10 minutes.
(§8) The lysate (5 μL) was then placed into 384-well shallow plates avoiding the generation of bubbles. To this, the Reaction Buffer+Activation Buffer+AlphaScreen® Acceptor beads mixture (5 μL) was added. The plate was sealed with adhesive cover and shielded from light (e.g., with metal foil), and agitated gently on plate shaker for 2 hours at room temperature.
(§9) Dilution buffer+AlphaScreen® Donor beads (2 μL) was then added, and the plate was intubated on the plate shaker for an additional 1½ hours. After completion, the plate was read on Synergy-4 or Enspire plate reader, using AlphaScreen® pSMAD3® settings.
(§10) Representative results for inhibition of GDF8 (data=GDF pSMAD (MPC11) (μM)) and TGF-β (data=TGF-β pSMAD (MPC-11) (μM)) signaling are shown in Table 1: […]

TGF-β = experiment: AlphaScreen SureFire SMAD3 (p-Ser423/425) assay, TGF-β-stimulated (TGF-β pSMAD (MPC-11)); assay type: cell-based; conditions: p-SMAD-3 (Ser423/425)
Excerpt: as §1, §2, §3, §4, §5, §6, §7, §8, §9, §10

[1] = Mus musculus, MPC-11, inhibition of GDF8 signaling
[2] = Mus musculus, MPC-11, inhibition of TGF-β signaling

| IC50 (GDF8; [1]) | IC50 (TGF-β; [2]) | IC50 (GDF8; inhibition of GDF8 signaling) | IC50 (TGF-β; inhibition of TGF-β signaling) | SMILES |
| --- | --- | --- | --- | --- |
| 204 nM | 436 nM | – | – | Cc1ccccc1-c1ncc(C)c(Nc2ccc3[nH]ncc3c2)n1 [Compound 39, N-(2-(2-Methylphenyl)-5-methylpyrimidin-4-yl)-1H-indazol-5-amine] |
| 84.2 nM | 747 nM | – | – | Cc1cc(-c2nc(Nc3ccc4[nH]ncc4c3)c3cc[nH]c3n2)ccc1F [Compound 8, 2-(4-Fluoro-3-methylphenyl)-N-(1H-indazol-5-yl)-7H-pyrrolo[2,3-d]pyrimidin-4-amine] |
| 241 nM | 535 nM | – | – | Cc1cc(-c2ncc(C)c(Nc3cc4cn[nH]c4cc3F)n2)ccc1F [Compound 61, 6-Fluoro-N-(2-(4-fluoro-3-methylphenyl)-5-methylpyrimidin-4-yl)-1H-indazol-5-amine] |
| 332 nM | 558 nM | – | – | Cc1ccc(C)c(-c2ncc(C)c(Nc3cc4cn[nH]c4cc3F)n2)c1 [Compound 59, 6-Fluoro-N-(2-(2,5-dimethylphenyl)-5-methylpyrimidin-4-yl)-1H-indazol-5-amine] |
| 201 nM | 1230 nM | – | – | Cc1ccccc1-c1nccc(Nc2ccc3[nH]ncc3c2)n1 [Compound 21, N-(2-(2-Methylphenyl)pyrimidin-4-yl)-1H-indazol-5-amine] |
| 917 nM | 5330 nM | – | – | Cc1cccc(-c2nc(Nc3ccc4[nH]ncc4c3)c3[nH]ccc3n2)c1 [Compound 11, N-(1H-Indazol-5-yl)-2-(3-methylphenyl)-5H-pyrrolo[3,2-d]pyrimidin-4-amine] |
| 312 nM | 395 nM | – | – | COc1cc2[nH]ncc2cc1Nc1nc(-c2ccc(F)c(F)c2)ncc1C [Compound 63, N-(2-(3,4-Difluorophenyl)-5-methylpyrimidin-4-yl)-6-methoxy-1H-indazol-5-amine] |
| 481 nM | 1590 nM | – | – | Cc1cc(F)ccc1-c1ncc(F)c(Nc2cnc3[nH]ncc3c2)n1 [Compound 12, N-(5-Fluoro-2-(4-fluoro-2-methylphenyl)pyrimidin-4-yl)-1H-pyrazolo[3,4-b]pyridin-5-amine] |
| 766 nM | 4050 nM | – | – | COc1cccc(-c2nccc(Nc3ccc4[nH]ncc4c3)n2)c1 [Compound 19, N-(2-(3-Methoxyphenyl)pyrimidin-4-yl)-1H-indazol-5-amine] |
| 335 nM | 381 nM | – | – | COc1cc2[nH]ncc2cc1Nc1nc(-c2ccccc2F)ncc1C [Compound 62, N-(2-(2-Fluorophenyl)-5-methylpyrimidin-4-yl)-6-methoxy-1H-indazol-5-amine] |
| 652 nM | 4370 nM | – | – | FC(F)(F)c1cccc(-c2nccc(Nc3ccc4[nH]ncc4c3)n2)c1 [Compound 45, N-(2-(3-Trifluoromethylphenyl)pyrimidin-4-yl)-1H-indazol-5-amine] |
| 1050 nM | 3490 nM | – | – | Fc1ccc(-c2nc(Nc3cnc4[nH]ncc4c3)c3cc[nH]c3n2)cc1 [Compound 50, N-(2-(4-Fluorophenyl)-7H-pyrrolo[2,3-d]pyrimidin-4-yl)-1H-pyrazolo[3,4-b]pyridin-5-amine] |
| 287 nM | 2200 nM | – | – | Fc1cc(F)cc(-c2nccc(Nc3ccc4[nH]ncc4c3)n2)c1 [Compound 27, N-(2-(3,5-Difluorophenyl)pyrimidin-4-yl)-1H-indazol-5-amine] |
| 58.6 nM | 174 nM | – | – | Cc1cnc(-c2ccc(F)c(F)c2)nc1Nc1ccc2[nH]ncc2c1 [Compound 40, N-(2-(3,4-Difluorophenyl)-5-methylpyrimidin-4-yl)-1H-indazol-5-amine] |
| 192 nM | 595 nM | – | – | Cc1ccc(F)c(-c2nccc(Nc3ccc4[nH]ncc4c3)n2)c1 [Compound 48, N-(2-(2-Fluoro-5-methylphenyl)pyrimidin-4-yl)-1H-indazol-5-amine] |
| 644 nM | 5130 nM | – | – | Fc1ccc(-c2nc(Nc3ccc4[nH]ncc4c3)c3[nH]ccc3n2)cc1 [Compound 10, 2-(4-Fluorophenyl)-N-(1H-indazol-5-yl)-5H-pyrrolo[3,2-d]pyrimidin-4-amine] |
| 116 nM | 553 nM | – | – | Cc1cccc(-c2nccc(Nc3ccc4[nH]ncc4c3)n2)c1 [Compound 32, N-(2-(3-Methylphenyl)pyrimidin-4-yl)-1H-indazol-5-amine] |

| IC50 (GDF8; [1]) | IC50 (TGF-β; [2]) | IC50 (GDF8; inhibition of GDF8 signaling) | IC50 (TGF-β; inhibition of TGF-β signaling) | SMILES |
| --- | --- | --- | --- | --- |
| 264 nM | 1680 nM | – | – | Fc1ccc(-c2nc(Nc3ccc4[nH]ncc4c3)c3cc[nH]c3n2)cc1F [Compound 6, 2-(3,4-Difluorophenyl)-N-(1H-indazol-5-yl)-7H-pyrrolo[2,3-d]pyrimidin-4-amine] |
| – | – | 777 nM | 829 nM | Cc1cc(-c2ncc(C)c(Nc3cc4cn[nH]c4cc3C)n2)ccc1F [Compound 51, N-(2-(4-Fluoro-3-methylphenyl)-5-methylpyrimidin-4-yl)-6-methyl-1H-indazol-5-amine] |
| 852 nM | 1820 nM | – | – | Cc1cnc(-c2cccc(F)c2)nc1Nc1cc2cn[nH]c2cc1F [Compound 57, 6-Fluoro-N-(2-(3-fluorophenyl)-5-methylpyrimidin-4-yl)-1H-indazol-5-amine] |
| 260 nM | 629 nM | – | – | Cc1ccc(C)c(-c2ncc(C)c(Nc3cc4cn[nH]c4cc3C)n2)c1 [Compound 55, N-(2-(2,5-Dimethylphenyl)-5-methylpyrimidin-4-yl)-6-methyl-1H-indazol-5-amine] |
| 105 nM | 168 nM | – | – | Cc1ccc(C)c(-c2ncc(C)c(Nc3ccc4[nH]ncc4c3)n2)c1 [Compound 41, N-(2-(2,5-Dimethylphenyl)-5-methylpyrimidin-4-yl)-1H-indazol-5-amine] |
| 119 nM | 874 nM | – | – | Fc1ccc(-c2nc(Nc3ccc4[nH]ncc4c3)c3cc[nH]c3n2)c(F)c1 [Compound 7, 2-(2,4-Difluorophenyl)-N-(1H-indazol-5-yl)-7H-pyrrolo[2,3-d]pyrimidin-4-amine] |
| 358 nM | 1740 nM | – | – | c1ccc(-c2nccc(Nc3ccc4[nH]ncc4c3)n2)cc1 [Compound 20, N-(2-Phenylpyrimidin-4-yl)-1H-indazol-5-amine] |
| 306 nM | 732 nM | – | – | Cc1cnc(-c2ccc(F)cc2)nc1Nc1cnc2[nH]ncc2c1 [Compound 14, N-(2-(4-Fluorophenyl)-5-methylpyrimidin-4-yl)-1H-pyrazolo[3,4-b]pyridin-5-amine] |
| 11 nM | 65.9 nM | – | – | COc1ccc(-c2nccc(Nc3ccc4[nH]ncc4c3)n2)c(C)c1 [Compound 46, N-(2-(4-Methoxy-2-methylphenyl)pyrimidin-4-yl)-1H-indazol-5-amine] |
| 125 nM | 339 nM | – | – | Cc1cnc(-c2ccccc2F)nc1Nc1ccc2[nH]ncc2c1 [Compound 38, N-(2-(2-Fluorophenyl)-5-methylpyrimidin-4-yl)-1H-indazol-5-amine] |
| 463 nM | 2710 nM | – | – | Nc1cccc(-c2nccc(Nc3ccc4[nH]ncc4c3)n2)c1 [Compound 31, N-(2-(3-Aminophenyl)pyrimidin-4-yl)-1H-indazol-5-amine] |
| 382 nM | 1530 nM | – | – | Fc1ccc(-c2nccc(Nc3cnc4[nH]ncc4c3)n2)cc1F [Compound 3, N-(2-(3,4-Difluorophenyl)pyrimidin-4-yl)-1H-pyrazolo[3,4-b]pyridin-5-amine] |
| 41 nM | 185 nM | – | – | Cc1cc(-c2nccc(Nc3ccc4[nH]ncc4c3)n2)ccc1F [Compound 43, N-(2-(4-Fluoro-3-methylphenyl)pyrimidin-4-yl)-1H-indazol-5-amine] |
| 66.1 nM | 751 nM | – | – | Fc1ccc(-c2nc(Nc3ccc4[nH]ncc4c3)c3cc[nH]c3n2)cc1 [Compound 5, 2-(4-Fluorophenyl)-N-(1H-indazol-5-yl)-7H-pyrrolo[2,3-d]pyrimidin-4-amine] |
| 144 nM | 318 nM | – | – | Cc1cccc(-c2nc(Nc3cnc4[nH]ncc4c3)c3ccccc3n2)n1 [Compound 2, 2-(6-Methylpyridin-2-yl)-N-(1H-pyrazolo[3,4-b]pyridin-5-yl)quinazolin-4-amine] |
| – | – | 32.1 nM | 112 nM | Fc1ccc(-c2nccc(Nc3ccc4[nH]ncc4c3)n2)cc1F [Compound 22, N-(2-(3,4-Difluorophenyl)pyrimidin-4-yl)-1H-indazol-5-amine] |
| 363 nM | 2140 nM | – | – | COc1ccc(-c2nccc(Nc3ccc4[nH]ncc4c3)n2)cc1F [Compound 28, N-(2-(3-Fluoro-4-methoxyphenyl)pyrimidin-4-yl)-1H-indazol-5-amine] |
